# According to patent US7048907B2, “Synthesis, compositions and methods for the measurement of the concentration of stable-isotope labeled compounds in life forms and life form excretory products” (BioPhysics Assay Laboratory, Inc., priority 2001, dated 2006):
# How the values were obtained:
# [1] = Stability of chelates to autoclaving (CM-Sephadex assay); assay type: physicochemical; conditions: for % of total / dpm: autoclaved 30 minutes at 121° C.
# Description: A sample comprising 5 ml of Sm-DTPA, La-DTPA, and Eu-DTPA prepared in Examples 9, 10, and 11 were placed in 10 ml glass bottles, each capped with a grey butyl rubber cap, and the caps were crimped. Samples were autoclaved for 30 minutes at 121° C.
# Five ml of each of Sm-DOTA, La-DOTA, and Eu-DOTA prepared in Examples 13, 14, and 15 were placed in 10 ml glass bottles capped with a grey butyl rubber cap and crimped. Samples were autoclaved for 30 minutes at 121° C. Samples were allowed to cool to room temperature and were assayed as described in Examples 25.
# [2] = Assay of chelate on carboxymethyl (CM) Sephadex column (chelate formation, charge); assay type: physicochemical
# Description: Preparation of carboxymethyl sephadex column. To two 10 ml plastic pipets cut off at the 3 ml mark and plugged with glass wool at the bottom add enough slurry to form a 2 ml volume of the CM sephadex. Wash the packed resin with 6 ml of 1 M Tris buffer pH 7.5, and 6 ml of 0.01M Tris buffer pH 7.5. […] Collect the eluants of fractions as follows. Fraction 1.3 ml of 0.01 M Tris buffer pH 7.5 and allow to drain into column. Fraction 2.1 ml of sample (gadolinium-DTPA or gadolinium chloride) and allow to drain into column. Apply 3 ml of 0.01 M Tris buffer pH 7.5 and allow to drain into column. Fraction 3.3 ml of 0.01M Tris buffer pH 7.5 and allow to drain into column. Dry all fractions at 70° C. for 76 hours, dissolve in 1 ml of 1 mM HCl and assay by atomic absorption.
# (§1) Preparation of carboxymethyl Sephadex column. To two 10 ml plastic pipets which had been cut off at the 3 ml mark and plugged with glass wool at the bottom, enough slurry was added to form a 2 ml volume of the CM Sephadex. The packed resin was wash with 6 ml of 1 M Tris buffer pH 7.5, and 6 ml of 0.01M Tris buffer pH 7.5. […] Fractions were applied as follows. Fraction 1. Three ml of 0.01 M Tris buffer pH 7.5 and allow to drain into column. Fraction 2. One ml of sample (samarium-DTPA or samarium chloride) and allow to drain into column. Apply 3 ml of 0.01 M Tris buffer pH 7.5 and allow to drain into column. Fraction 3. Three ml of 0.01M Tris buffer pH 7.5 and allow to drain into column. Collect the eluant of fractions 1 through 3. Fraction 4. Column and contents.
# as §1, with “were” for “had been”, “washed” for “wash”, “(lanthanum-DTPA” for “(samarium-DTPA”, “lanthanum” for “samarium”
# as §1, with “were” for “had been”, “washed” for “wash”, “(Europium-DTPA” for “(samarium-DTPA”, “Europium” for “samarium”
# Preparation of carboxymethyl sephadex column. To a 10 ml plastic pipet cut off at the 3 ml mark and plugged with glass wool at the bottom, add enough slurry to form a 2 ml volume of the CM sephadex. Wash the packed resin with 6 ml of 1 M Tris buffer pH 7.5, and 6 ml of 0.01M Tris buffer pH 7.5. […] Apply fractions as follows. Fraction 1. One ml of sample A and allow to drain into column.
# [3] = Stability of chelates in rat serum (CM-Sephadex assay, serum binding); conditions: 24 hours in rat serum at room temperature
# [4] = Kinetics of blood depletion and urine accumulation of chelates in the rat; assay type: in vivo; conditions: ^99mTc-DTPA, Gd-DTPA and Sm-DTPA simultaneously administered (Example 30), average of three rats
# Description: One half ml of Sm-DTPA (0.01 mg/kg), dissolved in saline (pH 7), is injected into the tail vein of three rats. Samples of blood are obtained at 10, 30 and 60 minutes following injection and analyzed for Sm-DTPA by neutron activation. The percent of starting amount of the Sm-DTPA at each time interval is presented in Table 18 (last column on right). Similarly, the accumulation of Sm-DTPA in the rat urine at two times is shown in the last column of Table 18.
# One half ml of Technetium-99m-DTPA (1 millicurie), Gd-DTPA (0.05 mg/kg), and Sm-DTPA (0.01 mg/kg) are each dissolved in saline (pH 7), and are injected simultaneously into the tail vein of three rats. Samples of blood are obtained at 10, 30 and 60 minutes following injection and analyzed for ^99mTc-DTPA (gamma counting), Gd-DTPA (T1 relaxation) and Sm-DTPA (neutron activation).
# One half ml of Sm-DTPA, La-DTPA and Eu-DTPA (each 0.01 mg/kg), dissolved in saline (pH 7) are injected simultaneously into the tail vein of three rats. Samples of blood are obtained at 10, 30 and 60 minutes following injection and analyzed for each element by neutron activation.
# Samples of Sm-DTPA, La-DTPA and Eu-DTPA (0.5 ml; 0.01 mg/kg), each dissolved in saline (pH 7), are injected sequentially at 0, 20, and 40 minutes into the tail vein of three rats. Samples of blood are obtained at 10, 30 and 60 min following each injection and analyzed for each element by neutron activation.
# [5] = Fraction 1: sample diluted 1:10 then 2-3 ml 0.01M Tris pH 7.5 (eluate)
# [6] = Fraction 2: 3 ml 0.01M Tris pH 7.5
# [7] = Fraction 3: column and contents (retained)
# [8] = DOTA chelates, Fraction 1: 1 ml sample diluted 1:10 then 3 ml 0.01M Tris pH 7.5 (eluate)
# [9] = DOTA chelates, Fraction 2: further 3 ml 0.01M Tris pH 7.5
# [10] = DOTA chelates, Fraction 3: column and contents (retained)
# [11] = Fraction 1: 0.2 ml sample then 2 ml 0.01M Tris pH 7.5 (eluate)
# [12] = Fraction 1: 3 ml 0.01M Tris pH 7.5 before sample
# [13] = Fraction 2: 1 ml sample then 3 ml 0.01M Tris pH 7.5 (eluate)
# [14] = Fraction 3: further 3 ml 0.01M Tris pH 7.5
# [15] = Fraction 4: column and contents (retained)
Molecule,"% of total [1, 5]","dpm [1, 5]","% of total [1, 6]","dpm [1, 6]","% of total [1, 7]","dpm [1, 7]",% eluted from the CM-Sephadex column [2],"% of total [2, 8]","dpm [2, 8]","% of total [2, 9]","dpm [2, 9]","% of total [2, 10]","dpm [2, 10]",% of unchelated ion retained on the column [2],"% of total [2, 12]","% of total [2, 13]","% of total [2, 14]",other results
O=C([O-])CN1CCN(CC(=O)[O-])CCN(CC(=O)[O-])CCN(CC(=O)[O-])CC1.[Eu+3] [Eu-DOTA],100 % of total,366651 dpm,<1 % of total,1226 dpm,0 % of total,0 dpm,100%,100 % of total,391454 dpm,<1 % of total,132 dpm,0 % of total,0 dpm,–,–,–,–,% eluted from CM-Sephadex column following autoclaving [1]: 100%
"[Cl][Eu]([Cl])[Cl] [Europium chloride, reference compound]",–,–,–,–,–,–,–,–,–,–,–,–,–,100%,0 % of total,0 % of total,0 % of total,"% of total [3, 11]: 42 % of total; dpm [3, 11]: 2378 dpm; % of total [3, 6]: 5 % of total; dpm [3, 6]: 291 dpm; % of total [3, 7]: 52 % of total; dpm [3, 7]: 2940 dpm; dpm [2, 12]: 0 dpm; dpm [2, 13]: 0 dpm; dpm [2, 14]: 0 dpm; % of total [2, 15]: 100 % of total; dpm [2, 15]: 21244 dpm"
"[Cl][Gd]([Cl])[Cl] [Gadolinium chloride, reference compound]",–,–,–,–,–,–,–,–,–,–,–,–,–,100%,0 % of total,0 % of total,0 % of total,–
O=C([O-])CN1CCN(CC(=O)[O-])CCN(CC(=O)[O-])CCN(CC(=O)[O-])CC1.[La+3] [La-DOTA],100 % of total,400045 dpm,<1 % of total,11 dpm,0 % of total,0 dpm,100%,97 % of total,410040 dpm,3 % of total,11681 dpm,0 % of total,0 dpm,–,–,–,–,% eluted from CM-Sephadex column following autoclaving [1]: 100%
"[Cl][La]([Cl])[Cl] [Lanthanum chloride, reference compound]",–,–,–,–,–,–,–,–,–,–,–,–,–,100%,0 % of total,0 % of total,0 % of total,"% of total [3, 11]: 49 % of total; dpm [3, 11]: 51651 dpm; % of total [3, 6]: 6 % of total; dpm [3, 6]: 6586 dpm; % of total [3, 7]: 44 % of total; dpm [3, 7]: 46450 dpm; dpm [2, 12]: 0 dpm; dpm [2, 13]: 0 dpm; dpm [2, 14]: 0 dpm; % of total [2, 15]: 100 % of total"
O=C([O-])CN1CCN(CC(=O)[O-])CCN(CC(=O)[O-])CCN(CC(=O)[O-])CC1.[Sm+3] [Sm-DOTA],98 % of total,1439622 dpm,2 % of total,27521 dpm,0 % of total,0 dpm,100%,98 % of total,1429326 dpm,2 % of total,28850 dpm,0 % of total,0 dpm,–,–,–,–,stability to autoclaving [1]: unstable product producing a mixture of Sm-DOTA and unchelated Sm^+3
"Technetium-99m-DTPA [^99mTc-DTPA, reference compound]",–,–,–,–,–,–,–,–,–,–,–,–,–,–,–,–,–,"Percent of initial injection, blood ([4]; blood 10 min after i.v. injection): 85% of initial injection; Percent of initial injection, blood ([4]; blood 30 min): 63% of initial injection; Percent of initial injection, blood ([4]; blood 60 min): 30% of initial injection; Percent of initial injection, urine ([4]; urine 30 min): 25% of initial injection; Percent of initial injection, urine ([4]; urine 180 min): 92% of initial injection"
